{"source": "patent US7060697B2", "about": "“Immunosuppressant compounds and compositions” (IRM LLC, priority 2003, dated 2006)", "key": {"[1]": {"system": "blood lymphocytes", "assay": "Measurement of circulating lymphocytes (blood lymphocyte depletion)", "assay_type": "in vivo, Rats (C57b1/6 male)", "conditions": "Rattus norvegicus, oral gavage, blood collected 6 and 24 hours after administration, read-out: ED50 (effective dose required displaying 50% of blood lymphocyte depletion)", "procedure": "C. In vivo: Screening Assays for Measurement of Blood Lymphocyte Depletion and Assessment of Heart Effect\nMeasurement of circulating lymphocytes: Compounds are dissolved in DMSO and diluted to obtain a final concentration of 4% DMSO (v/v, final concentration) and then further diluted in a constant volume of Tween80 25%/H2O, v/v. Tween80 25%/H2O (200 μl), 4% DMSO, and FTY720 (10 μg) are included as negative and positive controls, respectively. Rats (C57b1/6 male, 6–10 week-old) are administered 250–300 μL of compound solution orally by gavages under short isoflurane anesthesia.\nBlood is collected from the retro-orbital sinus 6 and 24 hours after drug administration under short isoflurane anesthesia. Whole blood samples are subjected to hematology analysis. Peripheral lymphocyte counts are determined using an automated analyzer. Subpopulations of peripheral blood lymphocytes are stained by fluorochrome-conjugated specific antibodies and analyzed using a fluorescent activating cell sorter (Facscalibur). Two rats are used to assess the lymphocyte depletion activity of each compound screened. The result is an ED50, which is defined as the effective dose required displaying 50% of blood lymphocyte depletion."}, "[2]": {"target": "T1, human EDG-1 (Homo sapiens, UniProt P21453)", "T1 construct": "c-myc (N); expressed in transfected cells; homogenized membranes", "T1 sequence (P21453 whole entry)": "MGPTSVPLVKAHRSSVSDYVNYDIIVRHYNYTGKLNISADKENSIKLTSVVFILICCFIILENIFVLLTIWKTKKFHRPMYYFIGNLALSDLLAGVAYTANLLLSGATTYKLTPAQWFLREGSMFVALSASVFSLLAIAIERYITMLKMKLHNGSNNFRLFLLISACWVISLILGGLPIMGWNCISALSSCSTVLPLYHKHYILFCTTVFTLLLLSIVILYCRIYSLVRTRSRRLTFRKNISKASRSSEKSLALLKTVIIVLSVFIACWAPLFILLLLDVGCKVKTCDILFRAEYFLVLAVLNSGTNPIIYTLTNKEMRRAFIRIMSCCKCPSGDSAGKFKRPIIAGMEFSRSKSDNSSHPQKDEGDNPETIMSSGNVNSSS", "assay": "GPCR activation assay measuring GTP [γ-35S] binding to membranes from CHO cells expressing human EDG receptors", "assay_type": "biochemical", "procedure": "A. In vitro: GPCR Activation Assay Measuring GTP [γ-^35S] Binding to Membranes Prepared from CHO Cells Expressing Human EDG Receptors\nEDG-1 (S1P1) GTP [γ-^35S] binding assay: Homogenized membranes are prepared from CHO cell clones stably expressing a human EDG-1 N-terminal c-myc tag. Cells are grown in suspension in two 850 cm^2 roller bottles for three or fours days before harvesting. The cells are centrifuged down, washed once with cold PBS, and resuspended in ≦20 ml of Buffer A (20 mM HEPES, pH 7.4, 10 mM EDTA, EDTA-free complete protease inhibitor cocktail [1 tablet/25 ml]). The cell suspension is homogenized on ice, using a Polytron homogenizer at 30000 rpm at three intervals of 15 seconds each. The homogenate is first centrifuged at 2000 rpm on a tabletop low speed centrifuge for 10 minutes. The supernatant, after passing through a cell strainer, is then re-centrifuged at 50,000×g for 25 minutes at 4° C. The pellet is resuspended into buffer B (15% glycerol, 20 mM HEPES, pH 7.4, 0.1 mM EDTA, EDTA-free complete protease inhibitor cocktail [1 tablet/10 ml]). Protein concentration of the prep is determined using the BCA Protein Assay kit (Pierce) using BSA as standard. The membranes are aliquoted and kept frozen at −80° C.\nSolutions of test compounds ranging from 10 mM to 0.01 nM are prepared in DMSO. S1P is diluted in 4% BSA solution as positive controls. […]"}}}
{"smiles": "O=C(O)C1CN(Cc2ccc(SCc3ccc(-c4ccccc4)c(C(F)(F)F)c3)cc2)C1", "note": "[Compound 9, 1-[4-(2-trifluoromethyl-biphenyl-4-ylmethylsulfanyl)-benzyl]-azetidine-3-carboxylic acid]", "values": [{"measurement": "ED50", "setting": "[1]", "value": "< 0.1", "unit": "mg/kg"}, {"measurement": "EC50", "setting": "[2]; EDG-1 (S1P1) GTP [γ-35S] binding, CHO cell membranes", "value": 0.82, "unit": "nM"}, {"measurement": "selectivity for EDG-1 compared to one or more of the other receptors including EDG-3, EDG-5, EDG-6 and EDG-8", "setting": "[2]; GTP [γ-35S] binding assays", "value": "at least 1000 fold"}]}
